Results from ChEMBL document CHEMBL1201862, “PubChem BioAssay data set” (2004).
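Each compound was tested at five concentrations against cells in 96-well plates for 48 hours. GI50 marks 50% less growth.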 The source made the active and inactive calls. Cut-off read from the data, not from the text of the source: active = GI50 up to about 1.1 µM and inactive = higher.

Columns and labels:
Test in all cases: growth of human tumour cells (NCI), 48 h
[1] = system: SW-620
[2] = system: DMS-273
[3] = system: HCC 2998
[4] = system: ACHN
[5] = system: UACC-257
[6] = system: DMS-114
[7] = system: M14
[8] = system: HT-29
[9] = system: COLO 205
[10] = system: A549
[11] = system: 786-0
[12] = system: CCRF-CEM
[13] = system: HOP-92
[14] = system: OVCAR-5
[15] = system: SF-268
[16] = system: UACC-62
[17] = system: OVCAR-8
[18] = system: HCT-15
[19] = system: A498
[20] = system: UO-31
[21] = system: NCI-H522
[22] = system: K562
[23] = system: IGROV-1
[24] = system: KM-20L2
[25] = system: M19-MEL
[26] = system: SK-OV-3
[27] = system: SF-295
[28] = system: NCI-H23
[29] = system: RXF 393
[30] = system: SK-MEL-5
[31] = system: U-251
[32] = system: LOX IMVI
[33] = system: SK-MEL-28
[34] = system: NCI-H460
[35] = system: NCI-H226
[36] = system: RPMI-8226
[37] = system: OVCAR-4
[38] = system: TK-10
[39] = system: SK-MEL-2
[40] = system: DLD-1
[41] = system: XF498
[42] = system: EKVX
[43] = system: Malme-3M
[44] = system: SNB-75
[45] = system: HOP-62
[46] = system: HOP-18
[47] = system: HL-60
[48] = system: KM12
[49] = system: LXFL 529
[50] = system: MOLT-4
[51] = system: OVCAR-3
[52] = system: SNB-78
[53] = system: CAKI-1
[54] = system: SR
[55] = system: SNB-19
[56] = system: SF-539
[57] = system: SN12C
[58] = system: HCT-116

Q: Which GI50 [1] does the source give for CC1COS(=O)N1c1ccccc1 (configuration not stated) here?
A: > 100 µM (inactive)

Q: What about the GI50 [2] of the same compound?
A: > 100 µM (inactive)

Q: What about the GI50 [3] of the same compound?
A: > 100 µM (inactive)

Q: And the GI50 [4]?
A: > 100 µM (inactive)

Q: What about the GI50 [5] of the same compound?
A: > 100 µM (inactive)

Q: What about the GI50 [6] of the same compound?
A: > 100 µM (inactive)

Q: What about the GI50 [7] of the same compound?
A: > 100 µM (inactive)

Q: And the GI50 [8]?
A: > 100 µM (inactive)

Q: What about the GI50 [9] of the same compound?
A: > 100 µM (inactive)

Q: And the GI50 [10]?
A: > 100 µM (inactive)

Q: What about the GI50 [11] of the same compound?
A: > 100 µM (inactive)

Q: And the GI50 [12]?
A: > 100 µM (inactive)

Q: And the GI50 [13]?
A: > 100 µM (inactive)

Q: What about the GI50 [14] of the same compound?
A: > 100 µM (inactive)

Q: And the GI50 [15]?
A: > 100 µM (inactive)

Q: What about the GI50 [16] of the same compound?
A: > 100 µM (inactive)

Q: What about the GI50 [17] of the same compound?
A: > 100 µM (inactive)

Q: What about the GI50 [18] of the same compound?
A: > 100 µM

Q: And the GI50 [19]?
A: > 100 µM (inactive)

Q: What about the GI50 [20] of the same compound?
A: > 100 µM (inactive)

Q: What about the GI50 [21] of the same compound?
A: > 100 µM (inactive)

Q: What about the GI50 [22] of the same compound?
A: > 100 µM (inactive)

Q: And the GI50 [23]?
A: > 100 µM (inactive)

Q: What about the GI50 [24] of the same compound?
A: > 100 µM (inactive)

Q: And the GI50 [25]?
A: > 100 µM (inactive)

Q: And the GI50 [26]?
A: > 100 µM (inactive)

Q: What about the GI50 [27] of the same compound?
A: > 100 µM (inactive)

Q: What about the GI50 [28] of the same compound?
A: > 100 µM (inactive)

Q: And the GI50 [29]?
A: > 100 µM (inactive)

Q: And the GI50 [30]?
A: > 100 µM (inactive)

Q: And the GI50 [31]?
A: > 100 µM (inactive)

Q: And the GI50 [32]?
A: > 100 µM (inactive)

Q: What about the GI50 [33] of the same compound?
A: > 100 µM (inactive)

Q: What about the GI50 [34] of the same compound?
A: > 100 µM (inactive)

Q: And the GI50 [35]?
A: > 100 µM (inactive)

Q: What about the GI50 [36] of the same compound?
A: > 100 µM (inactive)

Q: What about the GI50 [37] of the same compound?
A: > 100 µM (inactive)

Q: And the GI50 [38]?
A: > 100 µM (inactive)

Q: And the GI50 [39]?
A: > 100 µM (inactive)

Q: And the GI50 [40]?
A: > 100 µM (inactive)

Q: What about the GI50 [41] of the same compound?
A: > 100 µM (inactive)

Q: What about the GI50 [42] of the same compound?
A: > 100 µM (inactive)

Q: And the GI50 [43]?
A: > 100 µM (inactive)

Q: What about the GI50 [44] of the same compound?
A: > 100 µM (inactive)

Q: What about the GI50 [45] of the same compound?
A: > 100 µM (inactive)

Q: And the GI50 [46]?
A: > 100 µM (inactive)

Q: And the GI50 [47]?
A: > 100 µM (inactive)

Q: And the GI50 [48]?
A: > 100 µM (inactive)

Q: What about the GI50 [49] of the same compound?
A: > 100 µM (inactive)

Q: And the GI50 [50]?
A: > 100 µM (inactive)

Q: Which GI50 [1] does the source give for CC1=CC(=C(c2ccc(N)c(C)c2)c2ccc(N)c(C)c2)C=CC1=N here?
A: 3.8 µM (inactive)

Q: And the GI50 [2]?
A: 2.45 µM (inactive)

Q: And the GI50 [3]?
A: 3.44 µM (inactive)

Q: What about the GI50 [51] of the same compound?
A: 4.49 µM (inactive)

Q: And the GI50 [4]?
A: 8.45 µM (inactive)

Q: What about the GI50 [5] of the same compound?
A: 3 µM (inactive)

Q: And the GI50 [6]?
A: 1.2 µM (inactive)

Q: And the GI50 [7]?
A: 4.95 µM (inactive)

Q: What about the GI50 [8] of the same compound?
A: 3.64 µM (inactive)

Q: What about the GI50 [9] of the same compound?
A: 1.93 µM (inactive)

Q: What about the GI50 [52] of the same compound?
A: 4.84 µM (inactive)

Q: What about the GI50 [10] of the same compound?
A: 3.6 µM (inactive)

Q: And the GI50 [11]?
A: 3.11 µM (inactive)

Q: What about the GI50 [12] of the same compound?
A: 2.86 µM (inactive)

Q: And the GI50 [53]?
A: 15.2 µM (inactive)

Q: What about the GI50 [13] of the same compound?
A: 3.32 µM (inactive)

Q: And the GI50 [54]?
A: 2.99 µM (inactive)

Q: What about the GI50 [14] of the same compound?
A: 5.42 µM (inactive)

Q: What about the GI50 [15] of the same compound?
A: 0.499 µM (active)

Q: And the GI50 [16]?
A: 2.69 µM (inactive)

Q: What about the GI50 [17] of the same compound?
A: 1.37 µM (inactive)

Q: And the GI50 [18]?
A: 12.8 µM

Q: What about the GI50 [19] of the same compound?
A: 9.16 µM (inactive)

Q: And the GI50 [20]?
A: 28.3 µM (inactive)

Q: And the GI50 [21]?
A: 3.03 µM (inactive)

Q: And the GI50 [22]?
A: 2.92 µM (inactive)

Q: What about the GI50 [55] of the same compound?
A: 0.689 µM (active)

Q: What about the GI50 [23] of the same compound?
A: 13.4 µM (inactive)

Q: And the GI50 [24]?
A: 3.33 µM (inactive)

Q: And the GI50 [25]?
A: 2.65 µM (inactive)

Q: And the GI50 [26]?
A: 4.66 µM (inactive)

Q: And the GI50 [27]?
A: 0.873 µM (active)

Q: What about the GI50 [28] of the same compound?
A: 2.97 µM (inactive)

Q: What about the GI50 [29] of the same compound?
A: 5.92 µM (inactive)

Q: What about the GI50 [30] of the same compound?
A: 2.07 µM (inactive)

Q: And the GI50 [31]?
A: 0.411 µM (active)

Q: What about the GI50 [32] of the same compound?
A: 4.2 µM (inactive)

Q: And the GI50 [33]?
A: 5.71 µM (inactive)

Q: And the GI50 [34]?
A: 3.61 µM (inactive)

Q: And the GI50 [35]?
A: 3.93 µM (inactive)

Q: What about the GI50 [36] of the same compound?
A: 2.18 µM (inactive)

Q: What about the GI50 [37] of the same compound?
A: 10.5 µM (inactive)

Q: What about the GI50 [38] of the same compound?
A: 15.5 µM (inactive)

Q: What about the GI50 [56] of the same compound?
A: 2.67 µM (inactive)

Q: What about the GI50 [39] of the same compound?
A: 2.73 µM (inactive)

Q: And the GI50 [40]?
A: 3.78 µM (inactive)

Q: What about the GI50 [41] of the same compound?
A: 2.91 µM (inactive)

Q: And the GI50 [42]?
A: 4.89 µM (inactive)

Q: What about the GI50 [43] of the same compound?
A: 2.91 µM (inactive)

Q: And the GI50 [44]?
A: 1.51 µM (inactive)

Q: And the GI50 [45]?
A: 2.79 µM (inactive)

Q: And the GI50 [47]?
A: 3.72 µM (inactive)

Q: What about the GI50 [48] of the same compound?
A: 3.24 µM (inactive)

Q: What about the GI50 [49] of the same compound?
A: 1.27 µM (inactive)

Q: And the GI50 [57]?
A: 0.33 µM (active)

Q: What about the GI50 [58] of the same compound?
A: 3.37 µM (inactive)

Q: And the GI50 [50]?
A: 3.65 µM (inactive)
